Drawing on ChEMBL document CHEMBL1909046, “DrugMatrix in vitro pharmacology data”, this text covers IC50 and Ki for 23 compounds.

For experiment [1], the target named is T1, Muscarinic acetylcholine receptor M2 (Homo sapiens, UniProt P08172). Further: in other assays of this panel Not Active means under 50% inhibition at 10 µM.
T1 sequence (P08172 whole entry): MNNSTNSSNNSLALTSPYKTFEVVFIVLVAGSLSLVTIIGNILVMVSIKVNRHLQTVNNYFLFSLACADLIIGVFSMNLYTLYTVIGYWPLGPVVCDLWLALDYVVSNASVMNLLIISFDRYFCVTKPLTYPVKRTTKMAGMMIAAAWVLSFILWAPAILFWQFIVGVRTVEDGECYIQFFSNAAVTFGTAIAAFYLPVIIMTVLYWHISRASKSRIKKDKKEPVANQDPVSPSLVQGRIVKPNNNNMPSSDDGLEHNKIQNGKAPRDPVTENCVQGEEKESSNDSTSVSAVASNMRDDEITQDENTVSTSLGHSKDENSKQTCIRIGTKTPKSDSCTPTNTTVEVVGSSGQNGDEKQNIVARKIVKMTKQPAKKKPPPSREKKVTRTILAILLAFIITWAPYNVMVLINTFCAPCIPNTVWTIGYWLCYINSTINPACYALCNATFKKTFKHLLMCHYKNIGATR
It is filed as cell membranes, CHO-K1, Membrane.

The target of a further experiment is Substance-P receptor (Homo sapiens, UniProt P25103). It is filed as cell membranes, Membrane. Conditions: cho. Further: in other assays of this panel Not Active means under 50% inhibition at 10 µM.
The nature of experiment [2]: DRUGMATRIX: beta-Lactamase enzyme inhibition (substrate: Nitrocefin). Set-up: species or system Bacillus cereus. Conditions: Not Active = under 50% inhibition at 10 µM.
The target of the next experiment is Carbonic anhydrase 2 (Homo sapiens, UniProt P00918). The experiment in a line: DRUGMATRIX: Carbonic Anhydrase II enzyme inhibition (substrate: 4-Nitrophenyl acetate (4-NPA)). The note with it: erythrocyte; Not Active = under 50% inhibition at 10 µM. It is filed as tissue-based, Erythrocyte.
Experiment [3] is described as follows: DRUGMATRIX: Calcium Channel Type L, Dihydropyridine radioligand binding (ligand: [3H] Nitrendipine). The experiment is classed as cell membranes, Rattus norvegicus, Wistar, Cerebral cortex, Membrane. The note with it: Not Active = under 50% inhibition at 10 µM.
A further experiment has as its target T2, Cathepsin G (Homo sapiens, UniProt P08311).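 Further: inhibition of Cathepsin G enzyme activity, tested on an AMC-conjugated peptide substrate; in other assays of this panel Not Active means under 50% inhibition at 10 µM.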
T2 sequence (P08311 whole entry): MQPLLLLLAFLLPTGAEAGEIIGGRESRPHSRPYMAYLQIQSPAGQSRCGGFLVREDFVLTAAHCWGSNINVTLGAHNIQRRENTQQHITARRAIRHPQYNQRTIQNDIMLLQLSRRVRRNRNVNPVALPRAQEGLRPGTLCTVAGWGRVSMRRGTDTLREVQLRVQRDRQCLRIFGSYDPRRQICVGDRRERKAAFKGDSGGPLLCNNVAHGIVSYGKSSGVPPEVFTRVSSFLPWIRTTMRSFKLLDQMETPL
The experiment in a line: biochemical. It is filed as tissue-based, Neutrophil.

Chain of Substance-P receptor (P25103 whole entry): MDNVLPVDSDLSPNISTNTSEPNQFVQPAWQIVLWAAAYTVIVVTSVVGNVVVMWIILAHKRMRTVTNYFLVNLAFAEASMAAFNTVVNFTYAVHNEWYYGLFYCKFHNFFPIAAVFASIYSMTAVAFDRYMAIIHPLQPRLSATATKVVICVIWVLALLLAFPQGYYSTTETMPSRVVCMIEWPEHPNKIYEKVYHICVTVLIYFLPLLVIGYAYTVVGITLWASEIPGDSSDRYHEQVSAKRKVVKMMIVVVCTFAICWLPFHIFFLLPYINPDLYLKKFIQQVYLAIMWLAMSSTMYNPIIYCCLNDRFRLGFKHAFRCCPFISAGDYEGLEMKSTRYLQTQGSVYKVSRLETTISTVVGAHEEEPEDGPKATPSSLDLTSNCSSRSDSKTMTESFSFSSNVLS

Take `Cc1cnc(NC(=O)C2=C(O)c3ccccc3S(=O)(=O)N2C)s1` [MELOXICAM]: the IC50 entry (in experiment [1] (cho-k1); at Substance-P receptor; in experiment [2]; on Carbonic anhydrase 2; in experiment [3]; at Cathepsin G (neutrophil)) was “Not Active” in each case. The Ki result in experiment [2] and in experiment [3] was “Not Active” each time.
With `Nc1nc(N)c2nc(-c3ccccc3)c(N)nc2n1`, the IC50 result in experiment [1] (cho-k1) was “Not Active”; on Substance-P receptor, “Not Active”; in experiment [2], “Not Active”; on Carbonic anhydrase 2 it was “Not Active”; in experiment [3], “Not Active”; on Cathepsin G (read-out: IC50), 7.41 µM. Besides, the Ki result in experiment [2] and in experiment [3] was “Not Active” each time.
Regarding `CC(C)(C)NC[C@H](O)COc1cccc2c1CCCC2=O` [LEVOBUNOLOL], the concentration for half-maximal inhibition (IC50) result (in experiment [1] (cho-k1); against Substance-P receptor; in experiment [2]; against Carbonic anhydrase 2; in experiment [3]; against Cathepsin G (neutrophil)) was “Not Active” throughout. Besides, the Ki result in experiment [2] and in experiment [3] was “Not Active” in each case.
For `Cc1[nH]c(=O)c(C#N)cc1-c1ccncc1` [MILRINONE], the half-maximal inhibitory concentration (IC50) result (in experiment [1] (cho-k1); against Substance-P receptor; in experiment [2]; against Carbonic anhydrase 2; in experiment [3]; against Cathepsin G (neutrophil)) was “Not Active” throughout. Further, the Ki entry in experiment [2] and in experiment [3] was “Not Active” throughout.
As for `Cc1cn([C@H]2C=C[C@@H](CO)O2)c(=O)[nH]c1=O` [STAVUDINE], the IC50 entry (in experiment [1] (cho-k1); against Substance-P receptor; in experiment [2]; on Carbonic anhydrase 2; in experiment [3]; against Cathepsin G (neutrophil)) was “Not Active” in each case. Moreover, the Ki result in experiment [2] and in experiment [3] was “Not Active” in each case.
`CCOc1cc(N)c(Cl)cc1C(=O)NCC1CN(Cc2ccc(F)cc2)CCO1` (stereo not drawn) [MOSAPRIDE]: the IC50 entry (in experiment [1] (cho-k1); at Substance-P receptor; in experiment [2]; on Carbonic anhydrase 2; in experiment [3]; at Cathepsin G (neutrophil)) was “Not Active” throughout. Also, the inhibitory constant (Ki) entry in experiment [2] and in experiment [3] was “Not Active” each time.
`C#C[C@]1(O)CC[C@H]2[C@@H]3[C@H](C)CC4=C(CCC(=O)C4)[C@H]3CC[C@@]21C` [TIBOLONE]: the concentration for half-maximal inhibition (IC50) entry (in experiment [1] (cho-k1); against Substance-P receptor; in experiment [2]; against Carbonic anhydrase 2; in experiment [3]; at Cathepsin G (neutrophil)) was “Not Active” each time. Further, the Ki entry in experiment [2] and in experiment [3] was “Not Active” in each case.
For `CC[C@H](C)[C@@H](CO[C@@H](Cc1ccccc1)C(=O)N[C@@H](CCS(C)(=O)=O)C(=O)OC(C)C)NC[C@@H](N)CS`, the IC50 in experiment [1] (read-out: IC50) is 3.57 µM; against Substance-P receptor, “Not Active”; in experiment [2], “Not Active”; on Carbonic anhydrase 2 it was “Not Active”; in experiment [3] (read-out: IC50) it was 4500 nM; on Cathepsin G (neutrophil) it was “Not Active”. Moreover, the results for the Ki in experiment [1] (read-out: Ki), in experiment [2] and in experiment [3] (read-out: Ki) were 1270 nM, “Not Active” and 2890 nM, respectively.
For the compound `OC[C@@H](O)[C@@H](O)[C@H](O)[C@H](O)CO` [MANNITOL], the half-inhibitory concentration (IC50) entry (in experiment [1] (cho-k1); at Substance-P receptor; in experiment [2]; against Carbonic anhydrase 2; in experiment [3]; on Cathepsin G (neutrophil)) was “Not Active” each time. The Ki entry in experiment [2] and in experiment [3] was “Not Active” in each case.
For the compound `O=[As][O-].[Na+]` [SODIUM ARSENITE], the half-inhibitory concentration (IC50) entry (in experiment [1] (cho-k1); at Substance-P receptor; in experiment [2]; on Carbonic anhydrase 2; in experiment [3]; against Cathepsin G (neutrophil)) was “Not Active” in each case. The inhibition constant (Ki) result in experiment [2] and in experiment [3] was “Not Active” each time.
On to `Cc1cc2c(s1)Nc1ccccc1N=C2N1CCN(C)CC1` [OLANZAPINE], for which the IC50 entry (in experiment [1] (cho-k1); at Substance-P receptor; on Carbonic anhydrase 2; against Cathepsin G (neutrophil)) was “Not Active” in each case.
In the case of `Cc1ccc(Cl)c(Nc2ccccc2C(=O)O)c1Cl` [MECLOFENAMIC ACID], the IC50 entry (in experiment [1] (cho-k1); against Substance-P receptor; in experiment [2]; on Carbonic anhydrase 2; in experiment [3]; against Cathepsin G (neutrophil)) was “Not Active” in each case. Besides, the inhibition constant Ki result in experiment [2] and in experiment [3] was “Not Active” each time.
For the compound `CCOC(=O)C1=C(C)NC(C)=C(C(=O)OCC)C1c1ccccc1/C=C/C(=O)OC(C)(C)C` [LACIDIPINE], the half-maximal inhibitory concentration (IC50) result in experiment [1] (cho-k1) was “Not Active”; against Substance-P receptor, “Not Active”; in experiment [2], “Not Active”; against Carbonic anhydrase 2, “Not Active”; in experiment [3] (read-out: IC50), 0.4 nM; against Cathepsin G (neutrophil), “Not Active”. Also, the figures for the Ki result in experiment [2] and in experiment [3] (read-out: Ki) were “Not Active” and 0.257 nM, respectively.
`CNCCCC12CCC(c3ccccc31)c1ccccc12` [MAPROTILINE]: the half-inhibitory concentration (IC50) result against Substance-P receptor, against Carbonic anhydrase 2 and at Cathepsin G (neutrophil) was “Not Active” in each case.
Take `O=C(c1ccccc1)c1ccc2n1CCC2C(=O)O` (stereo not drawn) [KETOROLAC]: the half-maximal inhibitory concentration (IC50) result (in experiment [1] (cho-k1); at Substance-P receptor; in experiment [2]; on Carbonic anhydrase 2; in experiment [3]; on Cathepsin G (neutrophil)) was “Not Active” in each case. Further, the Ki result in experiment [2] and in experiment [3] was “Not Active” each time.
As to `CCN(CC)N=O` [N-NITROSODIETHYLAMINE], the half-maximal inhibitory concentration (IC50) entry (in experiment [1] (cho-k1); against Substance-P receptor; in experiment [2]; against Carbonic anhydrase 2; in experiment [3]; against Cathepsin G (neutrophil)) was “Not Active” each time. Also, the Ki entry in experiment [2] and in experiment [3] was “Not Active” in each case.
As for `CO[C@@]12[C@H](COC(N)=O)C3=C(C(=O)C(C)=C(N)C3=O)N1C[C@@H]1N[C@@H]12` [MITOMYCIN], the IC50 entry (in experiment [1] (cho-k1); against Substance-P receptor; in experiment [2]; against Carbonic anhydrase 2; in experiment [3]; at Cathepsin G (neutrophil)) was “Not Active” in each case. The Ki entry in experiment [2] and in experiment [3] was “Not Active” in each case.
On to `Cc1ccc(S(=O)(=O)NC(=O)NN2CCCCCC2)cc1` [TOLAZAMIDE], for which the IC50 entry (in experiment [1] (cho-k1); at Substance-P receptor; in experiment [2]; against Carbonic anhydrase 2; in experiment [3]; at Cathepsin G (neutrophil)) was “Not Active” each time. The Ki entry in experiment [2] and in experiment [3] was “Not Active” each time.
`CCC(C)(C)C(=O)O[C@H]1C[C@@H](C)C=C2C=C[C@H](C)[C@H](CC[C@@H]3C[C@@H](O)CC(=O)O3)[C@H]21` [SIMVASTATIN]: the concentration for half-maximal inhibition (IC50) result (in experiment [1] (cho-k1); on Substance-P receptor; in experiment [2]; on Carbonic anhydrase 2; in experiment [3]; against Cathepsin G (neutrophil)) was “Not Active” each time. The Ki entry in experiment [2] and in experiment [3] was “Not Active” in each case.
Regarding `CCN1CCCC1CNC(=O)c1cc(S(N)(=O)=O)ccc1OC` (stereo not drawn) [SULPIRIDE], the IC50 entry (in experiment [1] (cho-k1); against Substance-P receptor; in experiment [2]; in experiment [3]; against Cathepsin G (neutrophil)) was “Not Active” in each case. Moreover, the Ki entry in experiment [2] and in experiment [3] was “Not Active” each time.
With `C[N+]1(C)[C@@H]2C[C@@H](OC(=O)[C@H](CO)c3ccccc3)C[C@H]1[C@@H]1O[C@@H]12.[Br-]` [METHSCOPOLAMINE BROMIDE], the concentration for half-maximal inhibition (IC50) result (at Substance-P receptor; in experiment [2]; against Carbonic anhydrase 2; in experiment [3]; on Cathepsin G (neutrophil)) was “Not Active” each time. In addition, the Ki result in experiment [2] and in experiment [3] was “Not Active” in each case.
For the compound `CN(C)CCC=C1c2ccccc2COc2ccccc21` [DOXEPIN], the IC50 entry at Substance-P receptor, on Carbonic anhydrase 2 and against Cathepsin G (neutrophil) was “Not Active” each time.
Turning to `Cc1ccnc(NS(=O)(=O)c2ccc(N)cc2)n1` [SULFAMERAZINE], the half-maximal inhibitory concentration (IC50) result (in experiment [1] (cho-k1); against Substance-P receptor; in experiment [2]; in experiment [3]; at Cathepsin G (neutrophil)) was “Not Active” in each case. Besides, the inhibitory constant (Ki) result in experiment [2] and in experiment [3] was “Not Active” in each case.
